Results reported in patent US7332608B2, “Anthranilamides and methods of their use” (SANOFI-AVENTIS Deutschland GmbH, priority 2001, dated 2008).

Biological target: T1, Human Kv1.5 channels (Homo sapiens, UniProt P22460)
T1 construct: expressed in transfected cells; host or cells: Xenopus laevis oocytes injected with in vitro synthesized Kv1.5-encoding RNA
Assay: Kv1.5 currents in Xenopus oocytes, two-microelectrode voltage clamp
Type: cell-based
Details: human Kv1.5 expressed in Xenopus laevis oocytes; voltage jumps 500 ms to 0 mV and 40 mV; room temperature; Hill equation
Procedure: Human Kv1.5 channels were expressed in Xenopus oocytes. For this purpose, firstly ooytes were isolated from Xenopus laevis and were defolliculated. Kv1.5-encoding RNA which had been synthesized in vitro was then injected into these oocytes. After 1-7 days of Kv1.5 protein expression, the Kv1.5 currents were measured on the oocytes by the two-microelectrode voltage clamp technique. The Kv1.5 channels were for this purpose usually activated with voltage jumps lasting 500 ms to 0 mV and 40 mV. A solution of the following composition flowed through the bath: NaCl 96 mM, KCl 2 mM, CaCl2 1.8 mM, MgCl2 1 mM, HEPES 5 mM (titrated to pH 7.4 with NaOH). These experiments were carried out at room temperature. The following were employed for data acquisition and analysis: geneclamp amplifier (Axon Instruments, Foster City, USA) and MacLab D/A converter and software (ADInstruments, Castle Hill, Australia). The compounds of the invention were tested by adding them in various concentrations to the bath solution. The effects of the compounds were calculated as percentage inhibition of the Kv1.5 control current which was obtained when no compound was added to the solution. The data were then extrapolated using the Hill equation in order to determine the inhibitory concentrations IC50 for the respective compounds.

T1 sequence (P22460 whole entry): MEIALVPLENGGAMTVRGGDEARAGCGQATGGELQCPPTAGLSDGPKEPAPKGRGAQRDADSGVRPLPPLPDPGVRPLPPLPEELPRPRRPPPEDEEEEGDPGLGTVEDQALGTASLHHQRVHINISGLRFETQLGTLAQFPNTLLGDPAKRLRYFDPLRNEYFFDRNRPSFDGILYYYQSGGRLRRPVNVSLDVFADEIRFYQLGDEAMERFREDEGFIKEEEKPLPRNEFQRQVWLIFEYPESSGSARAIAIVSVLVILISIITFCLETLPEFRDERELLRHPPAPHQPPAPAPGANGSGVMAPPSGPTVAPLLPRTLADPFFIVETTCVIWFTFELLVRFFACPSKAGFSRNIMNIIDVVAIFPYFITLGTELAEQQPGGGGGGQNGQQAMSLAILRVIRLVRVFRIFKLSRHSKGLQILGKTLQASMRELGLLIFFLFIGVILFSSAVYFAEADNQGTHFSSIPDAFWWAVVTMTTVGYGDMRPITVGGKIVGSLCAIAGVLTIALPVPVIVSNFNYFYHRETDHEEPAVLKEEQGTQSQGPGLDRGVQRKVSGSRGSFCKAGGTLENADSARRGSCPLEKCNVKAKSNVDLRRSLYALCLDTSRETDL

IC50	Structure (SMILES)
5 µM	CCc1ccc(S(=O)(=O)Nc2ccccc2C(=O)N(Cc2ccccc2)Cc2cccnc2)cc1 [Example 72]
3.1 µM	CCCS(=O)(=O)Nc1ccccc1C(=O)N[C@@H](CC)c1ccccc1 [Example 73]
1.7 µM	CC[C@H](NC(=O)c1ccccc1NS(=O)(=O)CCC(C)C)c1ccccc1 [Example 74]
2.9 µM	Cc1cccc(S(=O)(=O)Nc2ccccc2C(=O)N(Cc2ccccc2)Cc2cccnc2)c1 [Example 75]
4.7 µM	CC[C@H](NC(=O)c1ccccc1NS(=O)(=O)c1ccc(C)cc1OC)c1ccccc1 [Example 76]
2.6 µM	CCc1ccc(S(=O)(=O)Nc2ccccc2C(=O)N[C@@H](CC)c2ccccc2)cc1 [Example 77]
0.7 µM	Cc1ccc(S(=O)(=O)Nc2ccccc2C(=O)N(Cc2ccccc2)Cc2cccnc2)cc1 [Example 79]
0.4 µM	Cc1ccc(S(=O)(=O)Nc2ccc(F)cc2C(=O)N(Cc2ccccc2)Cc2nccn2C)cc1 [Example 81]
3.2 µM	COc1cccc(CN(CC2CC2)C(=O)c2ccccc2NS(=O)(=O)c2ccc(C)cc2)c1 [Example 82]
1.9 µM	Cc1ccc(S(=O)(=O)Nc2ccccc2C(=O)N(Cc2ccccc2)Cc2cccn2C)cc1 [Example 83]
1 µM	Cc1ccc(S(=O)(=O)Nc2ccccc2C(=O)N(Cc2ccccc2)Cc2nccs2)cc1 [Example 84]
5.2 µM	Cc1ccc(S(=O)(=O)Nc2ccccc2C(=O)N(Cc2ccn[nH]2)CC2CC2)cc1 [Example 85]
1.8 µM	Cc1ccc(S(=O)(=O)Nc2ccccc2C(=O)N(Cc2ccccc2)Cc2ccc[nH]2)cc1 [Example 86]
6 µM	Cc1ccc(S(=O)(=O)Nc2ccccc2C(=O)N(Cc2cnc3ccccc3c2)CC2CC2)cc1 [Example 87]
3.9 µM	CCc1nc(C)c(CN(Cc2ccccc2)C(=O)c2ccccc2NS(=O)(=O)c2ccc(C)cc2)[nH]1 [Example 88]
3.2 µM	Cc1ccc(S(=O)(=O)Nc2ccccc2C(=O)N(Cc2ccccc2)Cc2nn(C)cc2Cl)cc1 [Example 89]
0.5 µM	CC[C@H](NC(=O)c1cc(OC)ccc1NS(=O)(=O)c1ccc(C)cc1)c1ccccc1 [Example 90]
0.8 µM	CCC(NC(=O)c1cc(OC)ccc1NS(=O)(=O)c1ccc(C)cc1)c1ccc(F)cc1 (stereo not shown) [Example 91]
0.9 µM	CCCC(NC(=O)c1cc(OC)ccc1NS(=O)(=O)c1ccc(C)cc1)c1ccccc1 (stereo not shown) [Example 92]
1.1 µM	COc1ccc(NS(=O)(=O)c2ccc(C)cc2)c(C(=O)NC(c2ccccc2)C2CC2)c1 (stereo not shown) [Example 93]
1 µM	O=C(NC(c1ccccc1)C1CC1)c1ccccc1NS(=O)(=O)c1ccccc1 (stereo not shown) [Example 94]
0.7 µM	COc1ccc(NS(=O)(=O)c2ccc(C)cc2)c(C(=O)N[C@@H](C)C2CCCCC2)c1 [Example 95]
1 µM	COc1cccc([C@H](C)NC(=O)c2cc(OC)ccc2NS(=O)(=O)c2ccc(C)cc2)c1 [Example 96]
0.9 µM	COc1ccc([C@H](C)NC(=O)c2cc(OC)ccc2NS(=O)(=O)c2ccc(C)cc2)cc1 [Example 97]
2 µM	C[C@@H](c1ccccc1)N(C)C(=O)c1ccccc1NS(=O)(=O)c1ccccc1 [Example 98]

IC50	Structure (SMILES)
0.9 µM	CC[C@@H](NC(=O)c1cc(OC)ccc1NS(=O)(=O)c1ccc(C)cc1)c1ccccc1 [Example 99]
1.6 µM	Cc1ccc(S(=O)(=O)Nc2ccc(F)cc2C(=O)N(Cc2ccccc2)CC2CCCO2)cc1 (stereo not shown) [Example 100]
0.9 µM	Cc1ccc(S(=O)(=O)Nc2ccc(F)cc2C(=O)N(Cc2ccccc2)Cc2cccc(C)n2)cc1 [Example 101]
0.7 µM	Cc1ccc(S(=O)(=O)Nc2ccc(F)cc2C(=O)N(Cc2ccccc2)Cc2ccn[nH]2)cc1 [Example 102]
1.4 µM	COc1ccc(NS(=O)(=O)c2ccc(C)cc2)c(C(=O)NC(C)(C)c2ccccc2)c1 [Example 103]
1 µM	COc1ccc(NS(=O)(=O)c2ccc(C)cc2)c(C(=O)NC(C)c2ccc(F)cc2)c1 (stereo not shown) [Example 104]
2.6 µM	C[C@H](c1ccccc1)N(C)C(=O)c1ccccc1NS(=O)(=O)c1ccccc1 [Example 105]
3.8 µM	CC[C@H](NC(=O)c1cc(F)ccc1NS(=O)(=O)c1ccc(Cl)cc1)c1ccccc1 [Example 106]
0.9 µM	Cc1ccc(S(=O)(=O)Nc2ccc(F)cc2C(=O)N(Cc2ccc(F)cc2)Cc2nccn2C)cc1 [Example 107]
1.2 µM	Cc1ccc(S(=O)(=O)Nc2ccc(F)cc2C(=O)N(Cc2ccc(F)cc2)Cc2ccn[nH]2)cc1 [Example 108]
1.1 µM	Cc1ccc(S(=O)(=O)Nc2ccccc2C(=O)N(Cc2ccc(F)cc2)Cc2nccn2C)cc1 [Example 109]
1 µM	Cc1ccc(S(=O)(=O)Nc2ccc(F)cc2C(=O)N(Cc2ccccc2)Cc2nccs2)cc1 [Example 110]
1.7 µM	Cc1ccc(S(=O)(=O)Nc2ccccc2C(=O)N(Cc2nn(C)cc2Cl)CC2CC2)cc1 [Example 111]
0.5 µM	Cc1ccc(S(=O)(=O)Nc2ccccc2C(=O)N(Cc2ccccc2)Cc2ccn[nH]2)cc1 [Example 112]
2.6 µM	Cc1ccc(S(=O)(=O)Nc2ccccc2C(=O)N(Cc2cccc(C)n2)CC2CC2)cc1 [Example 113]
1.4 µM	CCCCS(=O)(=O)Nc1ccc(C)cc1C(=O)N[C@H](CC)c1ccccc1 [Example 114]
2.4 µM	CC[C@H](NC(=O)c1cc(F)ccc1NS(=O)(=O)c1ccc(C)cc1)c1ccccc1 [Example 115]
1.1 µM	Cc1ccc(S(=O)(=O)Nc2ccccc2C(=O)N(Cc2ccccc2)CC2CCCO2)cc1 (stereo not shown) [Example 116]
2.4 µM	Cc1ccc(S(=O)(=O)Nc2ccccc2C(=O)N(Cc2ccc(F)cc2)Cc2cccc(C)n2)cc1 [Example 117]
2.2 µM	Cc1ccc(S(=O)(=O)Nc2ccccc2C(=O)N(Cc2cccnc2)Cc2cccc(C)n2)cc1 [Example 118]
2.7 µM	Cc1ccc(S(=O)(=O)Nc2ccccc2C(=O)N(Cc2nccs2)CC2CCCCC2)cc1 [Example 119]
1.4 µM	Cc1ccc(S(=O)(=O)Nc2ccccc2C(=O)N(Cc2cccc(C)n2)CC2CCCO2)cc1 (stereo not shown) [Example 120]
0.6 µM	Cc1ccc(S(=O)(=O)Nc2ccccc2C(=O)N(Cc2cccc(C)n2)Cc2ccco2)cc1 [Example 121]
1.2 µM	Cc1ccc(S(=O)(=O)Nc2ccccc2C(=O)N(Cc2ccco2)Cc2nccn2C)cc1 [Example 122]
2.9 µM	CCCCS(=O)(=O)Nc1ccccc1C(=O)N(Cc1cccnc1)Cc1cccc(C)n1 [Example 123]

IC50	Structure (SMILES)
1 µM	COc1ccc(NS(=O)(=O)c2ccc(C)cc2)c(C(=O)NC(c2ccccn2)C2CC2)c1 (stereo not shown) [Example 124]
1.8 µM	CCCCS(=O)(=O)Nc1ccc(C)cc1C(=O)NC(c1ccccn1)C1CC1 (stereo not shown) [Example 125]
0.6 µM	Cc1ccc(S(=O)(=O)Nc2ccc(C)cc2C(=O)NC(c2ccccn2)C2CC2)cc1 (stereo not shown) [Example 126]
3.3 µM	CCCCS(=O)(=O)Nc1ccc(C)cc1C(=O)NC(c1cccc(OC)n1)C1CC1 (stereo not shown) [Example 127]
2.2 µM	C#CC(NC(=O)c1cc(C)ccc1NS(=O)(=O)CCCC)c1ccccc1 (stereo not shown) [Example 128]
1.3 µM	CCCCS(=O)(=O)Nc1ccc(C)cc1C(=O)NC(c1ccc(OC)nc1)C1CC1 (stereo not shown) [Example 129]
0.7 µM	CCC(c1ccccc1)N(C)C(=O)c1ccccc1NS(=O)(=O)c1ccccc1 (stereo not shown) [Example 130]
0.7 µM	COc1ccc(NS(=O)(=O)c2ccc(C)cc2)c(C(=O)NC(c2cccnc2)C2CC2)c1 (stereo not shown) [Example 131]
1.4 µM	COc1ccc(NS(=O)(=O)c2ccc(C)cc2)c(C(=O)NC(C)Cc2ccccn2)c1 (stereo not shown) [Example 133]
0.9 µM	COc1ccc(S(=O)(=O)Nc2ccc(OC)cc2C(=O)NC(c2cccnc2)C2CC2)cc1 (stereo not shown) [Example 134]
1.2 µM	CCC(NC(=O)c1cc(OC)ccc1NS(=O)(=O)c1ccc(C)cc1)c1ccc(C)o1 (stereo not shown) [Example 135]
0.9 µM	CCCCS(=O)(=O)Nc1ccc(C)cc1C(=O)NC(CC)c1ccc(C)o1 (stereo not shown) [Example 136]
1.8 µM	CCCCS(=O)(=O)Nc1ccc(C)cc1C(=O)NC(CC)Cc1cccnc1 (stereo not shown) [Example 138]
1 µM	CCC(NC(=O)c1cc(OC)ccc1NS(=O)(=O)c1ccc(C)cc1)c1ccc(OC)nc1 (stereo not shown) [Example 139]
1.4 µM	CCC(Cc1c[nH]c2ccccc12)NC(=O)c1cc(OC)ccc1NS(=O)(=O)c1ccc(C)cc1 (stereo not shown) [Example 140]
1.1 µM	CCC(NC(=O)c1cc(OC)ccc1NS(=O)(=O)c1ccc(C)cc1)c1ccc(C)nc1 (stereo not shown) [Example 141]
0.7 µM	CCC(Cc1ccccn1)NC(=O)c1cc(OC)ccc1NS(=O)(=O)c1ccc(C)cc1 (stereo not shown) [Example 142]
3.6 µM	COc1ccc(NS(=O)(=O)c2ccc(C)cc2)c(C(=O)N[C@H]2CC[C@H](C)CC2)c1 [Example 143]
2.8 µM	CCCCS(=O)(=O)Nc1ccc(C)cc1C(=O)NC(CC)c1cccnc1 (stereo not shown) [Example 144]
2.6 µM	CCC(NC(=O)c1ccccc1NS(=O)(=O)c1ccc(C)cc1)c1ccco1 (stereo not shown) [Example 145]
2.5 µM	CCC(NC(=O)c1cc(C)ccc1NS(=O)(=O)C1CC1)c1ccc(C)o1 (stereo not shown) [Example 146]
3.8 µM	CC[C@H](NC(=O)c1cc(OC)ccc1NS(=O)(=O)CC)c1ccccc1 [Example 147]
2.1 µM	CCCS(=O)(=O)Nc1ccc(OC)cc1C(=O)N[C@@H](CC)c1ccccc1 [Example 148]
